From patent US9643930B2, “Substituted indazole derivatives as in vitro MAO-B inhibitors” (“NTZ LAB” LTD., priority 2013, dated 2017) come the findings set out here.

Where only a bound is given, the exact number is not on record here.

One data set deals with T1, rat MAO-A (Rattus norvegicus, UniProt P21396).
T1 construct: from tissue; host or cells: rat liver mitochondria (male Sprague-Dawley rats)
T1 sequence (P21396 1-526): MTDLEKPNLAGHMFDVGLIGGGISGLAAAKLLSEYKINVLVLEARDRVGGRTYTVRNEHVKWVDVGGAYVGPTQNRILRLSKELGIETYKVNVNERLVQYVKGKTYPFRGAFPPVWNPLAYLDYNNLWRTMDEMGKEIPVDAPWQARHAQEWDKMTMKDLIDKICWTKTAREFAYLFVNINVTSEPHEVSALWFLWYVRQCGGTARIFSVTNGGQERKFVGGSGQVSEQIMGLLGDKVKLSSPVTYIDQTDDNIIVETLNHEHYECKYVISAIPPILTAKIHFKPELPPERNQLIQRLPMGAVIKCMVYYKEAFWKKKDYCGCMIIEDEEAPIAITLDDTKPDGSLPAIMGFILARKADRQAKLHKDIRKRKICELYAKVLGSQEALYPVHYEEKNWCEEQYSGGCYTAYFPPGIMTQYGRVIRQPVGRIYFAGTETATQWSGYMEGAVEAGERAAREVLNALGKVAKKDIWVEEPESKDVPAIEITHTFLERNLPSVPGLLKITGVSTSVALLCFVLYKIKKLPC
The data set is described as follows: Rat MAO-A assay (Amplex Red fluorescence, rat liver mitochondria pre-treated with deprenyl). In kind it is biochemical. The note with it: rat liver mitochondria, substrate p-tyramine; read-out: rat MAO-A (rat liver mitochondria) IC50.
Protocol: (§1) Male Sprague-Dawley (Harlan Sprague Dawley, Dublin, Va., US) rats (250-300 g) were sacrificed under light anesthesia and their livers were dissected. […] After homogenization, the volume is adjusted to 100 mL with the same buffer. After a low speed centrifugation (10 min at 600 g; 4° C.), the supernatant is further centrifuged at 15,000 rpm for 5 min at +4° C. The resulting pellet was resuspended in 2.0 mL of a 50 mM sodium/phosphate buffer (pH 7.4) and stored at −80° C. in aliquots of 1.0 mL each until further use.
(§2) The Amplex® Red reagent was prepared as recommended in the kit from Invitrogen (A12214). […] Clorgyline (1.0 μM) from Sigma Aldrich (M3778) was used to determine non-MAO-A enzyme activity and concentration-response curves of clorgyline serve as positive control.
By IC50 is commonly meant the point on the concentration scale where inhibition reaches its midpoint. With `COCCn1ncc2cc(C(=O)Nc3ccc(Cl)c(Cl)c3)ccc21` [Example 21, N-(3,4-dichlorophenyl)-1-(2-methoxyethyl)-1H-indazole-5-carboxamide], the concentration for half-maximal inhibition (IC50) is < 10000 nM.

As for `O=C(Nc1cnc(Cl)c(Cl)c1)c1ccc2[nH]ncc2c1` [Example 12, N-(5,6-dichloropyridin-3-yl)-1H-indazole-5-carboxamide], the half-inhibitory concentration (IC50) was < 10000 nM.

The data set is the same for the next values; noted with them: read-out: rat MAO-A (rat liver mitochondria) % inhibition at 10 μM.
As usually defined, the inhibition is the percentage by which the read-out fell short of the control. For `Cn1ncc2cc(C(=O)Nc3ccc(F)c(Cl)c3)ccc21` [Example 17, N-(3-chloro-4-fluorophenyl)-1-methyl-1H-indazole-5-carboxamide], the inhibition at 10 µM came out at 29%.

The same data set, now with this note: read-out: rat MAO-A (rat liver mitochondria) % inhibition at 10 μM; at 10 μM, rat liver mitochondria.
Take `Cn1ncc2cc(/C=N/c3ccc(Cl)c(Cl)c3)ccc21` [Example 26, (E)-3,4-dichloro-N-((1-methyl-1H-indazole-5-yl)methylene)aniline]: the inhibition at 10 µM was 23%.

As for `O=C(Nc1ccc(Cl)c(Cl)c1)c1ccc2[nH]ncc2c1` [Example 1], the inhibition at 10 µM turned out to be 42%.

With `O=C(Nc1ccc(Cl)c(Cl)c1)c1ccc2[nH]ccc2c1` [Example 2, N-(3,4-dichlorophenyl)-1H-indole-5-carboxamide], the inhibition at 10 µM was 70%.

As for `Cn1ccc2cc(C(=O)Nc3ccc(Cl)c(Cl)c3)ccc21` [Example 16, N-(3,4-dichlorophenyl)-1-methyl-1H-indole-5-carboxamide], the inhibition at 10 µM was 3%.

`COCCn1ncc2cc(C(=O)Nc3ccc(Cl)c(Cl)c3)ccc21` [Example 21, N-(3,4-dichlorophenyl)-1-(2-methoxyethyl)-1H-indazole-5-carboxamide]: the inhibition at 10 µM stood at 57%.

For `O=C(Nc1cnc(Cl)c(Cl)c1)c1ccc2[nH]ncc2c1` [Example 12, N-(5,6-dichloropyridin-3-yl)-1H-indazole-5-carboxamide], the inhibition at 10 µM worked out at 59%.

Turning to `O=C(Nc1cc(Cl)cc(Cl)c1)c1ccc2[nH]ncc2c1` [Example 8, N-(3,5-dichlorophenyl)-1H-indazole-5-carboxamide], the inhibition at 10 µM is 5%.

As to `Clc1ccc(/N=C/c2ccc3[nH]ncc3c2)cc1Cl` [Example 22, (E)-N-((1H-indazol-5-yl)methylene)-3,4-dichloroaniline], the inhibition at 10 µM came to 43%.

The next data set concerns the target T2, rat MAO-B (Rattus norvegicus, UniProt P19643).
T2 construct: from tissue; host or cells: rat liver mitochondria (male Sprague-Dawley rats)
T2 sequence (P19643 1-520): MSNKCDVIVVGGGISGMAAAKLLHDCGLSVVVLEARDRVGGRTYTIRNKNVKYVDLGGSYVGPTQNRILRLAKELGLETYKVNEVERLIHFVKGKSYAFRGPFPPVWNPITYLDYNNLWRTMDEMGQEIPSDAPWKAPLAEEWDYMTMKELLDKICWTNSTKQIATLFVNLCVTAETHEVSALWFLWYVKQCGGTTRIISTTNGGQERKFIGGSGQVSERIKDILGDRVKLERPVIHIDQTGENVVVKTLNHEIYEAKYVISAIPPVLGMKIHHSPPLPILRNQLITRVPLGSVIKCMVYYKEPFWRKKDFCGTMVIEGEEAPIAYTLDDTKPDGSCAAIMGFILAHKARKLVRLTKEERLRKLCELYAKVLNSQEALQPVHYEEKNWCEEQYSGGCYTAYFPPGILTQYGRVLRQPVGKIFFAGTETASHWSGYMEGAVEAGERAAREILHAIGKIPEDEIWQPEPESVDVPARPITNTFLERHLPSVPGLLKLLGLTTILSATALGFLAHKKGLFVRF
The data set is described as follows: Rat MAO-B assay (Amplex Red fluorescence, rat liver mitochondria pre-treated with clorgyline 30 nM). Type of data set: biochemical. The note with it: rat liver mitochondria pre-treated with clorgyline 30 nM; read-out: rat MAO-B (rat liver mitochondria) IC50.
Protocol: as §1, §2
On to `Cn1ncc2cc(C(=O)Nc3ccc(F)c(Cl)c3)ccc21` [Example 17, N-(3-chloro-4-fluorophenyl)-1-methyl-1H-indazole-5-carboxamide], for which the IC50 came out at 1.36 ± 0.13 nM.

For the compound `O=C(Nc1cnc(Cl)c(Cl)c1)c1ccc2[nH]ncc2c1` [Example 12, N-(5,6-dichloropyridin-3-yl)-1H-indazole-5-carboxamide], the half-maximal inhibitory concentration (IC50) is 26.6 ± 1.5 nM.

Turning to `Cn1cc2cc(C(=O)Nc3ccc(Cl)c(Cl)c3)ccc2n1` [Example 14, N-(3,4-dichlorophenyl)-2-methyl-2H-indazole-5-carboxamide], the IC50 worked out at 22.5 ± 0.6 nM.

Test system in the next data set: not given
Test: not given
Settings: not given
Usually melting point stands for the temperature of the solid-liquid transition. As for `O=C(Nc1ccc(Cl)c(Cl)c1)c1ccc2[nH]ccc2c1` [Example 2, N-(3,4-dichlorophenyl)-1H-indole-5-carboxamide], the melting point was in the range of 233.8 to 234.8 °C.

For the compound `Cn1ccc2cc(C(=O)Nc3ccc(Cl)c(Cl)c3)ccc21` [Example 16, N-(3,4-dichlorophenyl)-1-methyl-1H-indole-5-carboxamide], the melting point was 178.9 to 180.3 °C.

In turn, `O=C(Nc1cc(Cl)cc(Cl)c1)c1ccc2[nH]ncc2c1` [Example 8, N-(3,5-dichlorophenyl)-1H-indazole-5-carboxamide] displayed a melting point of 302.7 to 304.8 °C.

In a further data set the target is T3, human MAO-A (Homo sapiens, UniProt P21397).
T3 sequence (P21397 1-527): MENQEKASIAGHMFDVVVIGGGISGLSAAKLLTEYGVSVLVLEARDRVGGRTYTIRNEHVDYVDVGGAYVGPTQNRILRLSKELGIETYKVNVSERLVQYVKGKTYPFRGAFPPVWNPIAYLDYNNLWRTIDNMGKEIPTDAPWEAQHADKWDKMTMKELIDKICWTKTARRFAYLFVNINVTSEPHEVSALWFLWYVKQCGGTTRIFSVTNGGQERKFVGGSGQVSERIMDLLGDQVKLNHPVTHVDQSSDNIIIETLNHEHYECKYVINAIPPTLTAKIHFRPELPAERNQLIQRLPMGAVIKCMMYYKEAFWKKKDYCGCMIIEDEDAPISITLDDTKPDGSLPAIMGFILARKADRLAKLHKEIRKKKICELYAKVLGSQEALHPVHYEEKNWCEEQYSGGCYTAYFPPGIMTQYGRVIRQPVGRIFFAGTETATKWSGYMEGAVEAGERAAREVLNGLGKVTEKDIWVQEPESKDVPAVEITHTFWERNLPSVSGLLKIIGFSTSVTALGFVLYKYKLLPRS
The data set is described as follows: Human MAO-A assay (recombinant enzyme, Amplex Red fluorescence).
Settings: not given
For the compound `O=C(Nc1cnc(Cl)c(Cl)c1)c1ccc2[nH]ncc2c1` [Example 12, N-(5,6-dichloropyridin-3-yl)-1H-indazole-5-carboxamide], the IC50 is < 10000 nM.

Consider `O=C(Nc1cc(Cl)cc(Cl)c1)c1ccc2[nH]ncc2c1` [Example 8, N-(3,5-dichlorophenyl)-1H-indazole-5-carboxamide], for which the IC50 is < 10000 nM.

Still in this data set, the particulars now being: read-out: human MAO-A % inhibition at 10 μM.
As for `Cn1ncc2cc(/C=N/c3ccc(Cl)c(Cl)c3)ccc21` [Example 26, (E)-3,4-dichloro-N-((1-methyl-1H-indazole-5-yl)methylene)aniline], the inhibition at 10 µM turned out to be 57%.

Take `O=C(Nc1ccc(Cl)c(Cl)c1)c1ccc2[nH]ncc2c1` [Example 1]: the inhibition at 10 µM was determined as 46%.

On to `O=C(Nc1ccc(Cl)c(Cl)c1)c1ccc2[nH]ccc2c1` [Example 2, N-(3,4-dichlorophenyl)-1H-indole-5-carboxamide], for which the inhibition at 10 µM is 88%.

In the case of `Cn1ccc2cc(C(=O)Nc3ccc(Cl)c(Cl)c3)ccc21` [Example 16, N-(3,4-dichlorophenyl)-1-methyl-1H-indole-5-carboxamide], the inhibition at 10 µM amounted to 13%.

`COCCn1ncc2cc(C(=O)Nc3ccc(Cl)c(Cl)c3)ccc21` [Example 21, N-(3,4-dichlorophenyl)-1-(2-methoxyethyl)-1H-indazole-5-carboxamide]: the inhibition at 10 µM is 81%.

Consider `O=C(Nc1cnc(Cl)c(Cl)c1)c1ccc2[nH]ncc2c1` [Example 12, N-(5,6-dichloropyridin-3-yl)-1H-indazole-5-carboxamide], for which the inhibition at 10 µM came to 52%.

With `O=C(Nc1cc(Cl)cc(Cl)c1)c1ccc2[nH]ncc2c1` [Example 8, N-(3,5-dichlorophenyl)-1H-indazole-5-carboxamide], the inhibition at 10 µM was determined as 65%.

For `Clc1ccc(/N=C/c2ccc3[nH]ncc3c2)cc1Cl` [Example 22, (E)-N-((1H-indazol-5-yl)methylene)-3,4-dichloroaniline], the inhibition at 10 µM stood at 62%.

The target of the next data set is T4, human MAO-B (Homo sapiens, UniProt P27338).
T4 sequence (P27338 1-520): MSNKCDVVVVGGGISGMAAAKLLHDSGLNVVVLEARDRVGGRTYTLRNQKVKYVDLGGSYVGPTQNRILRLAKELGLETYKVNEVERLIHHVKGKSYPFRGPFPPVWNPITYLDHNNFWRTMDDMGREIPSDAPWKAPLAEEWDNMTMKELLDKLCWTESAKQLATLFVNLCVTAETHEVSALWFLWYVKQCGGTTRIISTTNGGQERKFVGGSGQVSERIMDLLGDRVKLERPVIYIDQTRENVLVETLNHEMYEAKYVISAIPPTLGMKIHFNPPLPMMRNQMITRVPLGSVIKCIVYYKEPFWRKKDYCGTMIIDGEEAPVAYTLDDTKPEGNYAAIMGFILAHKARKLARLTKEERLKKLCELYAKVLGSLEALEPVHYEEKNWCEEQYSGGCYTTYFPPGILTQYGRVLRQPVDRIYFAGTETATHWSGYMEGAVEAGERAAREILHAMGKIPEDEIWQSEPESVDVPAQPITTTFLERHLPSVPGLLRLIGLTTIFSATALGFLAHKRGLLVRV
The data set is described as follows: Human MAO-B assay (recombinant enzyme, Amplex Red fluorescence). Type of data set: biochemical. Conditions: p-tyramine 150 μM. On the set-up: purchased Sigma-Aldrich M7441; host or cells: baculovirus-infected insect cells (microsomal product).
For `O=C(Nc1cnc(Cl)c(Cl)c1)c1ccc2[nH]ncc2c1` [Example 12, N-(5,6-dichloropyridin-3-yl)-1H-indazole-5-carboxamide], the IC50 came to 5.42 ± 0.2 nM.

For the compound `Cn1cc2cc(C(=O)Nc3ccc(Cl)c(Cl)c3)ccc2n1` [Example 14, N-(3,4-dichlorophenyl)-2-methyl-2H-indazole-5-carboxamide], the IC50 worked out at 1.44 ± 0.41 nM.
